The text below walks through data of ChEMBL document CHEMBL3792301, “Isatin derivatives with activity against apoptosis-resistant cancer cells” (Bioorg Med Chem Lett, 2016).

A value given as a limit tells only on which side of the number the result lay.

A short description of experiment [1]: Antiproliferative activity against apoptosis resistant human U373 cells after 72 hrs by MTT assay. The experiment is classed as functional, cell-based, U-373MG ATCC. Particulars: U373 MG. (Formazan colour is commonly taken as a measure of viable cells.)
The test system of experiment [2] is A549. As to the kind of experiment: Antiproliferative activity against apoptosis resistant human A549 cells after 72 hrs by MTT assay. The experiment is classed as functional, cell-based. Particulars: A549, 72 h.
Experiment [3] is described as follows: Antiproliferative activity against apoptosis sensitive human PC3 cells after 72 hrs by MTT assay. The note with it: PC-3, 72 h. The experiment is classed as functional, cell-based.
In experiment [4] the test system is LoVo. As to the kind of experiment: Antiproliferative activity against human LoVo cells after 72 hrs by MTT assay. The class given is functional, cell-based.
Experiment [5] has as its system MCF7. As to the kind of experiment: Antiproliferative activity against apoptosis sensitive human MCF7 cells after 72 hrs by MTT assay. The experiment is classed as functional, cell-based. The note with it: MCF7, 72 h.
A short description of experiment [6]: Antiproliferative activity against apoptosis sensitive human Hs683 cells after 72 hrs by MTT assay. The class given is functional, cell-based. The note with it: Hs 683, 72 h.
Experiment [7] is described as follows: Antiproliferative activity against apoptosis resistant human OE21 cells after 72 hrs by MTT assay. The class given is functional, cell-based. Particulars: OE21, 72 h.
Experiment [8] can be described thus: Antiproliferative activity against apoptosis sensitive mouse B16F10 cells after 72 hrs by MTT assay. The note with it: B16-F10, 72 h. The class given is functional, cell-based.
Experiment [9] deals with SK-MEL-28. The experiment can be described thus: Antiproliferative activity against apoptosis resistant human SK-MEL-28 cells after 72 hrs by MTT assay. The experiment is classed as functional, cell-based. The note with it: SK-MEL-28, 72 h.

As to `O=C1Nc2c(Br)cccc2/C1=C1/Nc2ccccc2/C1=N\O`, the half-inhibitory concentration (IC50) is 6.6 µM in experiment [1]; 13.9 µM in experiment [2]; 7.8 µM in experiment [3]; 5.6 µM in experiment [4]; 4.9 µM in [5]; 8.1 µM in [6]. Besides, the IC50 in experiment [7] came to 3.9 µM; in [8] it was 5.3 µM; in experiment [9], 9.8 µM.
On to `O=C1NC(=S)S/C1=C1\C(=O)Nc2ccccc21`, for which the 50% inhibitory concentration (IC50) in experiment [1] is 85.3 µM; in experiment [2], 99 µM; in experiment [3], greater than 100 µM; in experiment [4], 69.3 µM; in experiment [5] it was greater than 100 µM; in [6], 93.3 µM. Also, the half-maximal inhibitory concentration (IC50) in experiment [7] was 47.2 µM; in experiment [8], 73.5 µM; in experiment [9], 96.6 µM.
Turning to `O=C1NC(=O)/C(=C2/C(=O)Nc3ccccc32)S1`, the IC50 was 86.4 µM in [1]; 60.7 µM in experiment [2]; 67.5 µM in [3]; 5.2 µM in experiment [4]; greater than 100 µM in experiment [5]; 89.7 µM in experiment [6]. The IC50 in experiment [7] is 38 µM; in experiment [8], 2.8 µM; in [9] it was greater than 100 µM.
`O=C1Nc2ccc(Br)cc2/C1=C1/Nc2ccccc2C1=O`: the IC50 is 8.6 µM in experiment [1]; greater than 100 µM in experiment [2]; greater than 100 µM in experiment [3]; 12 µM in experiment [4]; 37.3 µM in [5]; 14.1 µM in [6]. Also, the results for the IC50 in experiment [7], in experiment [8] and in [9] were 3.8 µM, 3.8 µM and greater than 100 µM, respectively.
With `O=C1Nc2ccccc2/C1=C1/Nc2ccccc2/C1=N\O`, the 50% inhibitory concentration (IC50) in experiment [1] came out at 18 µM; in experiment [2] it was 27 µM; in experiment [3], 24.3 µM; in experiment [4], 8.9 µM; in experiment [5], 9.2 µM; in experiment [6] it was 6 µM. Moreover, the IC50 is 8.1 µM in experiment [7], 5.4 µM in [8] and 26.6 µM in [9].
For the molecule `O=C1Nc2c(Cl)cccc2/C1=C1/Nc2ccccc2C1=O`, the IC50 in experiment [1] is greater than 100 µM; in experiment [2] it was greater than 100 µM; in [3], greater than 100 µM; in [4], greater than 100 µM; in [5], greater than 100 µM; in experiment [6], 55.2 µM. The IC50 in experiment [7] is 35.3 µM; in experiment [8] it was 15.7 µM; in [9] it was greater than 100 µM.
Take `O=C1Nc2c(F)cccc2/C1=C1/Nc2ccccc2C1=O`: the IC50 in experiment [1] is 45.8 µM; in experiment [2] it was greater than 100 µM; in experiment [3], greater than 100 µM; in [4] it was 42 µM; in experiment [5] it was 44.8 µM; in [6], 38.7 µM. Also, the concentration for half-maximal inhibition (IC50) in experiment [7] was 29 µM; in [8] it was 16.3 µM; in experiment [9], greater than 100 µM.
Regarding `O=C1Nc2c(Cl)cccc2/C1=C1/Nc2ccccc2/C1=N\O`, the IC50 amounted to 31.5 µM in experiment [1]; 45.2 µM in experiment [2]; 29.7 µM in experiment [3]; 10.2 µM in [4]; 27.5 µM in experiment [5]; 25.3 µM in [6]. Further, the figures for the IC50 in experiment [7], in [8] and in experiment [9] were 19.6 µM, 12.9 µM and 40.1 µM, respectively.
Turning to `O=C1Nc2c(F)cccc2/C1=C1/Nc2ccccc2/C1=N\O`, the IC50 in experiment [1] turned out to be 19.7 µM; in [2], 33.3 µM; in experiment [3], 26 µM; in experiment [4], 9 µM; in experiment [5] it was 26.2 µM; in experiment [6], 9.3 µM. Besides, the figures for the IC50 in [7], in [8] and in [9] were 9.2 µM, 7.8 µM and 44.6 µM, respectively.
As for `O=C1NC(=O)/C(=C2/C(=O)Nc3ccccc32)N1`, the half-inhibitory concentration (IC50) was greater than 100 µM in experiment [1]; 66.5 µM in [2]; 95.5 µM in [3]; 76.1 µM in experiment [4]; 94.6 µM in experiment [5]; 84.7 µM in experiment [6]. In addition, the figures for the IC50 in experiment [7], in experiment [8] and in experiment [9] were 52.3 µM, 73.3 µM and greater than 100 µM, respectively.
In the case of `O=C1NC(=S)N/C1=C1\C(=O)Nc2c(Br)cccc21`, the IC50 stood at 4.7 µM in experiment [1]; 3.8 µM in experiment [2]; 22.8 µM in experiment [3]; 37 µM in experiment [4]; 51 µM in experiment [5]; 40.8 µM in experiment [6]. In addition, the values for the IC50 in experiment [7], in experiment [8] and in experiment [9] were 20.2 µM, 5 µM and 11.7 µM, respectively.
With `O=C1Nc2ccccc2/C1=C1/Cc2ccccc2C1=O`, the IC50 was greater than 100 µM in [1]; greater than 100 µM in experiment [2]; greater than 100 µM in experiment [3]; 52.6 µM in [4]; 70.2 µM in experiment [5]; greater than 100 µM in experiment [6]. The values for the IC50 in experiment [7], in experiment [8] and in [9] were 25.1 µM, greater than 100 µM and greater than 100 µM, respectively.
For the molecule `O=C1Nc2ccc(Br)cc2/C1=C1/Cc2ccccc2C1=O`, the IC50 in experiment [1] is 41.4 µM; in experiment [2] it was greater than 100 µM; in experiment [3] it was greater than 100 µM; in experiment [4], 52.8 µM; in [5], 65.2 µM; in experiment [6], 47.3 µM. For the same molecule, the IC50 is 56 µM in [7], 69.1 µM in experiment [8] and greater than 100 µM in [9].
Consider `O=C1NC(=S)S/C1=C1\C(=O)Nc2ccc(Br)cc21`, for which the IC50 in [1] stood at 41.7 µM; in [2], 36.2 µM; in [3], 44.3 µM; in experiment [4] it was 52.1 µM; in experiment [5] it was 82.9 µM; in experiment [6], 93.6 µM. For the same molecule, the values for the IC50 in experiment [7], in experiment [8] and in experiment [9] were 62.5 µM, 0.1 µM and 53.5 µM, respectively.
As for `O=C1Nc2ccccc2/C1=C1/Cc2ccccc2/C1=N\O`, the IC50 in [1] came to 28 µM; in experiment [2], 28.7 µM; in experiment [3] it was 33.1 µM; in experiment [4], 18.7 µM; in [5], 38.5 µM; in experiment [6], 22.9 µM. For the same molecule, the IC50 in [7] was 27.8 µM; in experiment [8], 32.6 µM; in [9] it was 33.7 µM.
For `O=C1NC(=S)N/C1=C1\C(=O)Nc2ccccc21`, the IC50 in experiment [1] was 51.9 µM; in experiment [2], 45.8 µM; in [3], 75.5 µM; in experiment [4], 60.2 µM; in experiment [5], 87.8 µM; in experiment [6], 52.9 µM. The IC50 in experiment [7] is 38.7 µM; in experiment [8], 41.6 µM; in [9], 62.9 µM.
Turning to `O=C1Nc2ccccc2/C1=C1/Oc2ccccc2C1=O`, the IC50 came out at 27.7 µM in experiment [1]; 23.3 µM in experiment [2]; 36.1 µM in experiment [3]; 4.1 µM in experiment [4]; 0.3 µM in experiment [5]; 25.7 µM in experiment [6]. Besides, the concentration for half-maximal inhibition (IC50) in experiment [7] is 25.9 µM; in [8] it was less than 0.01 µM; in [9], 23.8 µM.
Take `O=C1Nc2c(Br)cccc2/C1=C1/Nc2ccccc2C1=O`: the IC50 in experiment [1] was 8.1 µM; in experiment [2], greater than 100 µM; in [3] it was greater than 100 µM; in experiment [4] it was 32.3 µM; in [5], 52.8 µM; in experiment [6] it was 6.9 µM. In addition, the IC50 in experiment [7] was 8.7 µM; in [8] it was 3.2 µM; in [9], greater than 100 µM.
Take `O=C1Nc2ccc(Br)cc2/C1=C1/Nc2ccccc2/C1=N\O` [INDIRUBIN 2]: the half-maximal inhibitory concentration (IC50) in experiment [1] stood at 8 µM; in experiment [2] it was 7.2 µM; in experiment [3], 6.8 µM; in [4], 6.6 µM; in [5], 5.8 µM; in experiment [6], 8.4 µM. The IC50 in [7] was 3.6 µM; in experiment [8], 0.5 µM; in experiment [9] it was 17.3 µM.
Turning to `O=C1Nc2ccccc2/C1=C1/Nc2ccccc2C1=O` [INDIRUBIN], the half-maximal inhibitory concentration (IC50) in [1], in [2], in experiment [3], in [4], in [5] and in experiment [6] was greater than 100 µM throughout. The IC50 in experiment [7] was 30.5 µM; in [8], 0.2 µM; in experiment [9] it was greater than 100 µM.
`CC1(C)CCC2=C(O1)c1ccccc1C(=O)C2=O` [LAPACHONE]: the half-maximal inhibitory concentration (IC50) in [1] is 0.4 µM; in experiment [2], 0.8 µM; in [3], less than 0.01 µM; in experiment [4] it was 0.3 µM; in [5] it was 0.5 µM; in [6] it was 0.4 µM. Besides, the IC50 was determined as 0.6 µM in experiment [7], 0.3 µM in [8] and 0.6 µM in experiment [9].

For orientation: IC50 means the concentration at which inhibition is half-maximal. The low end stands for greater potency, the high end for weaker potency.
